Read-outs that look alike come from different tables or passages of the source.
How the values were obtained:
[1] = molecular target: T1, α-Glucosidase (from yeast, EC 3.2.1.20) (Saccharomyces cerevisiae, UniProt P53341); test: biochemical; type: biochemical; details: for IC50: means ± SD, n = 3, yeast enzyme, p-NPG substrate, 37 °C; for α-glucosidase inhibitory activity (in words): tested up to 100.00 μM
T1 construct: purchased Shanghai Yuanye Bio-Technology Co., Ltd. (Shanghai, China)
Description: (§1) ESI-HR-MS was recorded on an Orbitrap Exploris 120 quadrupole electrostatic field orbital well high-resolution mass spectrometer for UPLC-Q-Orbitrap HRMS (Waltham, MA, USA) equipped with a Hypersil GOLD C18 column (2.1 × 100 mm, 1.9 μm, ThermoFisher, Waltham, MA, USA). Optical rotations were measured on an MCP 500 polarimeter (Anton Paar, Graz, Austria). CD spectra were obtained using a Chirascan circular dichroism spectrometer (Applied PhotoPhysics, Leatherhead, Surrey, UK). UV spectra were measured with a UV-3600 Plus spectrophotometer (Shimadzu, Kyoto, Japan), and IR spectra were obtained using an IR Affinity-1S spectrophotometer (Shimadzu, Kyoto, Japan). Preparative and semipreparative HPLC were performed on a Shimadzu LC-16 system using a reverse-phase C18 column (20 × 250 mm, 5 μm, Shimadzu, Kyoto, Japan). NMR experiments were conducted on a Bruker AVANCE-600 instrument with tetramethylsilane (TMS) as an internal standard, operating at 600 MHz for ^1H NMR and 150 MHz for ^13C NMR (Ettlingen, Germany). Enzyme inhibition activity was measured using an Agilent Synergy H1 microplate reader (Agilent Technologies, Santa Clara, CA, USA). Macroporous resin AB-8 was obtained from the Chemical Plant of Nankai University (Tianjin, China). […] Analytical-grade reagents were procured from Da Mao Chemical Reagent Co., Ltd. (Tianjin, China), chromatographic-grade reagents from Honeywell Trade (Shanghai) Co., Ltd. (Shanghai, China), and distilled water from Watsons (Hong Kong, China).
Then, 400 μL of p-NPG solution (5 mM) was added to initiate the enzymatic reaction, which continued to incubate at 37 °C for 20 min. The reaction was terminated by placing the mixture in a −20 °C freezer for 10 min. Absorbance was measured at 405 nm using a microplate reader.

[2] = molecular target: T2, α-amylase (from porcine pancreas) (Sus scrofa, UniProt P00690); test: α-amylase inhibition assay (DNS colorimetric, 540 nm); type: biochemical; details: for IC50: means ± SD, n = 3, porcine pancreas enzyme, DNS method, 37 °C; for α-amylase inhibitory activity (in words): tested up to 100.00 μM
T2 construct: purchased Shanghai Yuanye Bio-Technology Co., Ltd. (Shanghai, China); host or cells: porcine pancreas
T2 sequence (P00690 16-511): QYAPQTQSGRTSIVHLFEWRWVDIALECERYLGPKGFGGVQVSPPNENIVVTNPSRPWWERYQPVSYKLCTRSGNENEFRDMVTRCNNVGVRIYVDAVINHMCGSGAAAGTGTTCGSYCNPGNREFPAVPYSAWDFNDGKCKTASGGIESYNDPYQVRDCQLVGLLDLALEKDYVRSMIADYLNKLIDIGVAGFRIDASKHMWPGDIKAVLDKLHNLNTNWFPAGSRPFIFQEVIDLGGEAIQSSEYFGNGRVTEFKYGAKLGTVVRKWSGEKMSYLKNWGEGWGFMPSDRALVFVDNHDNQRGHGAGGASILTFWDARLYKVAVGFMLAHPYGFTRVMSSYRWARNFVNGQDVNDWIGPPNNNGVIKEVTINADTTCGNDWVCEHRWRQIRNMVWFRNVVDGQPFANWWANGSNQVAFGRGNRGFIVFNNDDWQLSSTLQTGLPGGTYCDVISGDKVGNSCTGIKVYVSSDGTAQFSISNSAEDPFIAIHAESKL
Description: as §1
Test sample solutions at various concentrations (5.00, 10.00, 20.00, 40.00, 60.00, 80.00, and 100.00 μM) were preincubated with α-amylase (2 U/mL) at 37 °C for 10 min. The reaction was terminated by adding 200 μL of DNS reagent and boiling the mixture at 100 °C for 5 min to inactivate the enzyme. After cooling to room temperature, 1 mL of distilled water was added for dilution, and absorbance was measured at 540 nm.

T1 sequence (P53341 whole entry): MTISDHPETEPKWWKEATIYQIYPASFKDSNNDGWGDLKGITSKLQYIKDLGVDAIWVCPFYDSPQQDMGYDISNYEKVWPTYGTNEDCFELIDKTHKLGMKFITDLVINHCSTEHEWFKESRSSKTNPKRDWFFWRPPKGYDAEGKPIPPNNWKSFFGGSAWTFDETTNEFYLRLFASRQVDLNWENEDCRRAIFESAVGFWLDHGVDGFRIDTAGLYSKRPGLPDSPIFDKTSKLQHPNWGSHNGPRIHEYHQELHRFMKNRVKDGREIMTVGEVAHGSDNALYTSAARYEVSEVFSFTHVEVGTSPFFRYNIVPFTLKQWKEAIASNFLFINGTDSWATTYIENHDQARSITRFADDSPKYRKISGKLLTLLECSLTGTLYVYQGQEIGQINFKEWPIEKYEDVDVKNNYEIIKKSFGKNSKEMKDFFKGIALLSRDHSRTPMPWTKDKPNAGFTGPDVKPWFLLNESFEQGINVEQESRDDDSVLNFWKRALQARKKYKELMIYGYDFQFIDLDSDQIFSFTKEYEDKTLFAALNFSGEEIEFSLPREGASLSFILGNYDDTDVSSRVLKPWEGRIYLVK

| Structure (SMILES) | IC50 ([1]; read-out: IC50 α-Glucosidase) | IC50 ([2]; read-out: IC50 α-Amylase) | α-glucosidase inhibitory activity (in words) [1] | α-amylase inhibitory activity (in words) [2] | IC50 ([1]; IC50 α-Glucosidase) | IC50 ([2]; IC50 α-Amylase) |
| --- | --- | --- | --- | --- | --- | --- |
| COC1=CC(=O)[C@@]2([C@@H]1O)[C@@H](Cl)C[C@@]13C(OC)=C(OC)C(=O)C[C@@]21CCN3C [Compound 8, acutumine] | 66.5 ± 2.03 µM | 80.7 ± 1.85 µM |  |  |  |  |
| COc1ccc(C2=CC(=O)OC2Cc2ccc(OC3OC(CO)C(O)C(O)C3O)cc2)c(OC2OC(CO)C(O)C(O)C2O)c1 (stereo not drawn) [Compound 1, 4R-pueroside B] | 61.3 ± 1.15 µM | 81.7 ± 1.72 µM | significant inhibitory activity | significant inhibitory activity |  |  |
| CC1(C)C=Cc2cc3c(cc2O1)OC1C2(O)C=CC(=O)C=C2OCC31O (stereo not drawn) [Compound 11, hydroxytuberosone] | 32.2 ± 0.71 µM | 38.9 ± 1.08 µM |  |  |  |  |
| COc1cc2c(cc1OC)[C@@H](Cc1ccc(Oc3cc(C[C@@H]4c5cc(OC)c(OC)cc5CCN4C)ccc3O)cc1)N(C)CC2 [Compound 4, dauricine] |  | 60.9 ± 1.68 µM |  |  | 44.2 ± 1.03 µM |  |
| COc1cc2c(cc1O)[C@@H]1Cc3ccc(O)c(OC)c3CN1CC2 [Compound 7, stepholidine] | 58.8 ± 1.55 µM | 78.2 ± 1.98 µM |  |  |  |  |
| COC1=C[C@@H]2[C@@H]3Cc4ccc(OC)c(O)c4[C@]2(CCN3C)CC1=O [Compound 9, sinomenine] |  |  |  |  | 57.6 ± 0.88 µM | 66.7 ± 1.45 µM |
| COc1cc2c(cc1O)[C@@H](Cc1ccc(O)c(Oc3ccc(C[C@@H]4c5cc(OC)c(OC)cc5CCN4C)cc3)c1)N(C)CC2 [Compound 5, daurisoline] |  | 66.4 ± 2.31 µM |  |  | 45.2 ± 1.27 µM |  |
| COc1ccc(C2=CC(=O)OC2Cc2ccc(O)cc2)c(OC2OC(CO)C(O)C(O)C2O)c1 (single isomer, unassigned; (-)) [Compound 3, (−)-puerol B-2-O-glucopyranoside] | 72.9 ± 0.79 µM | 83.6 ± 1.15 µM | significant inhibitory activity | significant inhibitory activity |  |  |
| CC1(C)CC(=O)C2(C)CCC3(C)C(=CCC4C5(C)CCC(=O)C(C)(CO)C5CCC43C)C2C1 (stereo not drawn) [Compound 12, melilotigenin B] | 23.3 ± 0.38 µM | 30.9 ± 0.57 µM |  |  |  |  |
| COc1cc(O)ccc1C(O)C(=O)Cc1ccc(O)cc1 (stereo not drawn) [Compound 10] | 43.6 ± 0.76 µM | 63.6 ± 1.37 µM |  |  |  |  |
| COc1ccc2c(c[n+](C)c3c4cc5c(cc4ccc23)OCO5)c1OC [Compound 6, chelerythrine] | 52.3 ± 1.59 µM | 71.4 ± 1.24 µM |  |  |  |  |
| COc1ccc(C2=CC(=O)OC2Cc2ccc(OC3OC(CO)C(O)C(O)C3O)cc2)c(OC2OC(CO)C(O)C(O)C2O)c1 (stereo not drawn) [Compound 2, 4S-pueroside B] | > 100 µM | > 100 µM | did not show any activity | did not show any activity |  |  |
